Measurements published in ChEMBL document CHEMBL1131791 (Bioorg Med Chem Lett, 1999).

Experiments:
D(2) dopamine receptor [1] = target: T1, D(2) dopamine receptor (Homo sapiens, UniProt P14416); assay: Ability to displace [3H]spiperone from the cloned human Dopamine receptor D2L stably expressed in Chinese hamster ovary (CHO) cells was determined.; assay type: cell-based
D(1A) dopamine receptor = D(1A) dopamine receptor (Bos taurus, UniProt Q95136); assay: Ability to displace D1 selective radioligand [3H]-SCH- 23390 in bovine striatal membrane preparations was determined; assay type: cell membranes, Striatum
D(3) dopamine receptor = D(3) dopamine receptor (Homo sapiens, UniProt P35462); assay: Ability to displace [3H]spiperone from the cloned human D3 dopamine receptor stably expressed in Chinese hamster ovary (CHO) cells was determined.; assay type: cell-based
D(4) dopamine receptor = target: T2, D(4) dopamine receptor (Homo sapiens, UniProt P21917); assay: Binding affinity of compound towards human cloned Dopamine receptor D4.4 expressed in CHO cells using [3H]spiperone as radioligand; assay type: cell-based
T2 sequence (P21917 whole entry): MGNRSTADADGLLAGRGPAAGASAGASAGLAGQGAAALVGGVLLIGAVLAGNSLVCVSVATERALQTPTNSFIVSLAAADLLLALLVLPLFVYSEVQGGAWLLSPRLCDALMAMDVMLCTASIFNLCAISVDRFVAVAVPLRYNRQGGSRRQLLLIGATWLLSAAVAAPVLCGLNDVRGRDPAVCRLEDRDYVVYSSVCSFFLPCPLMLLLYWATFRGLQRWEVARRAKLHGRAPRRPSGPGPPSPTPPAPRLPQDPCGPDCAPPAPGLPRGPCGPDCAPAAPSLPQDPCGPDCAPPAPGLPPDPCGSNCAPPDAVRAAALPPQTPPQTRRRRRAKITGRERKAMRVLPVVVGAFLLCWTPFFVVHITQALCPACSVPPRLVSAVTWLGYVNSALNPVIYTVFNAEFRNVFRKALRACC

D(2) dopamine receptor [2] = target: T1, D(2) dopamine receptor; assay: Ability to displace [3H]spiperone from the cloned human Dopamine receptor D2S stably expressed in Chinese hamster ovary (CHO) cells was determined.; assay type: cell-based

D(1A) dopamine receptor, sequence (Q95136 whole entry): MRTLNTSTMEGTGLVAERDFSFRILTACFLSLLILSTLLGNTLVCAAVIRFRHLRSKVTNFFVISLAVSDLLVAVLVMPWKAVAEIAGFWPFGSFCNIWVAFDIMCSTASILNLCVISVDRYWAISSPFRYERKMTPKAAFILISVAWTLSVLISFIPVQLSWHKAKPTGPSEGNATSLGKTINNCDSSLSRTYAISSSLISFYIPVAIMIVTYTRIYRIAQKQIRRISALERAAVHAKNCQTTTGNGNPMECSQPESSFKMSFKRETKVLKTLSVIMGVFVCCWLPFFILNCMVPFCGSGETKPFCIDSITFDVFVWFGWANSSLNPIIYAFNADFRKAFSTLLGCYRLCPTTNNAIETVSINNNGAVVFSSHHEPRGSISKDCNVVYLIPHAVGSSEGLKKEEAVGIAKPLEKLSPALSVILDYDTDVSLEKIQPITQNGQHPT
D(3) dopamine receptor, sequence (P35462 whole entry): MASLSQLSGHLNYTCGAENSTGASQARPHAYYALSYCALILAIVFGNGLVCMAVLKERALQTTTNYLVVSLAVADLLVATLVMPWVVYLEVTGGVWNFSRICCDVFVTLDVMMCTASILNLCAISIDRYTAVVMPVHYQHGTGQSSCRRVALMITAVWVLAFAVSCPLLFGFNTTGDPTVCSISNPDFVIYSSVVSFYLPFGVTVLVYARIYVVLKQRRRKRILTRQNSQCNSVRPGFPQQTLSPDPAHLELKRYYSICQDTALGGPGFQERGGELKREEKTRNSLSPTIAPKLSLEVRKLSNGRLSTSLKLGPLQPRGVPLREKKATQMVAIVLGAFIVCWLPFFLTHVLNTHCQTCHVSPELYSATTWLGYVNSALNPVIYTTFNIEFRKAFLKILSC
T1 sequence (P14416 whole entry): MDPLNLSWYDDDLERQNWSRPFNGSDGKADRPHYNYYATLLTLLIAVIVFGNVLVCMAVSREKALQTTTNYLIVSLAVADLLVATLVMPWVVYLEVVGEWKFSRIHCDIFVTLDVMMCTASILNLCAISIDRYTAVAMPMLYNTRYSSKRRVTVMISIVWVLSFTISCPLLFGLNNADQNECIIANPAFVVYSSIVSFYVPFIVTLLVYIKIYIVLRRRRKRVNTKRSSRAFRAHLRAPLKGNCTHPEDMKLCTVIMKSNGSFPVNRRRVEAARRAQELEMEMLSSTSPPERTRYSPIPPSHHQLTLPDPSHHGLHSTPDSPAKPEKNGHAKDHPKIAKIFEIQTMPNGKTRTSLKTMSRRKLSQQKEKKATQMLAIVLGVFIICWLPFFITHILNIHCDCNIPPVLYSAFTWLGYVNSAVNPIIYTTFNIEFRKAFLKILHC

Ki (D(2) dopamine receptor [1]) [µM] | Ki (D(1A) dopamine receptor) [µM] | Ki (D(3) dopamine receptor) [µM] | Ki (D(4) dopamine receptor) [µM] | Ki (D(2) dopamine receptor [2]) [µM] | SMILES
4 | 22 | 6.95 | 0.16 | 12.8 | N#CC(C#N)=Cc1[nH]ccc1CN1CCN(c2ccccc2)CC1
8.95 | 13.5 | 7.6 | 0.125 | 15 | N#CC(C#N)=Cc1[nH]ccc1CN1CCN(c2ccc(Cl)cc2)CC1
1.85 | 7.2 | 2.35 | 0.0039 | 0.975 | N#CC(C#N)=Cc1cc(CN2CCN(c3ccccc3)CC2)c[nH]1
> 100 | 58 | 5.25 | 0.0093 | > 100 | N#CC(C#N)=Cc1ccc(CN2CCN(c3ccccc3)CC2)[nH]1
7.35 | 5.3 | 6.95 | 0.0057 | 10.3 | N#CC(C#N)=Cc1cc(CN2CCN(c3ccc(Cl)cc3)CC2)c[nH]1

SMILES | Ki (D(2) dopamine receptor [1]) [µM] | Ki (D(1A) dopamine receptor) [µM] | Ki (D(3) dopamine receptor) [µM] | Ki (D(4) dopamine receptor) [µM] | Ki (D(2) dopamine receptor [2]) [µM]
N#CC(C#N)=Cc1ccc(CN2CCN(c3ccc(Cl)cc3)CC2)[nH]1 | 48.5 | 39.5 | 31 | 0.011 | 59
